Test results taken from US20080187508A1, “Treatment of Golmerular Basement Membrane Disease Involving Matrix Metalloproteinase-12” (BOYS TOWN NATIONAL RESEARCH HOSPITAL, priority 2004, published 2008).
Entries after “also recorded” stand apart in the source; their conditions may differ. Where a name gives a salt, the structure may show the parent alone. Read-outs that look alike come from different tables or passages of the source.

Legend:
Alport mice = test: proteinuria by gel electrophoresis of urine of treated Alport mice; format: in vivo, mouse; conditions: for proteinuria: Alport mice treated from 4 to 7 weeks of age, MMI-270 50 μg/g I.P.; for progression of proteinuria: Alport mice treated from 6 to 7 weeks of age (advanced disease)
Procedure: Proteinuria was analyzed by gel electrophoresis. (A) One half microliter of urine from control mice (lane 2), MMI 270-treated normal control mice (lane 3), MMI 270-treated Alport mice (injected […] with 50 μg/g of NMI 270) (lane 4), and untreated Alport mice (lane 5) was fractionated on a 10% PAGE gel, stained with Coomassie blue, and destained. Molecular weight markers are shown in lane 1. […] Urine was collected and analyzed as in (A). Lane 1, 6 week old control; lane 2, 6 week old Alport; lane 3, 7 week old control; lanes 4 and 5, 7 week old Alport; lanes 6 and 7, 7 week old Alport treated with MMI-270 from 6 to 7 weeks of age. Molecular weight markers are shown in lane 1. The Alport mouse model has been described (Cosgrove et al. (1996) Genes Dev. 10, 2981-2992). The control mice used were normal for both collagen α3(IV) alleles, and are a product of double heterozygote crosses for the Alport mutation. The use of animals in this study was performed in accordance with an approved institutional IACUC protocol. Extreme care was taken to minimize pain and discomfort suffered by the mice. MMP inhibitors were administered between 4 and 7 weeks of age. All drugs were freshly prepared prior to administration. BAY 129566 was emulsified in suspension with 0.5% carboxymethyl cellulose and 4 mg given once a day by oral gavage. MMI-270 was solubilized in 0.9% saline and administered by I.P. injection (50 μg/g body weight) once a day. To assess the effect of these two compounds on Alport renal disease progression, Alport mice were administered either MMI 270 or BAY 129566 from 4 to 7 weeks of age. The animals were transcardially perfused with PBS and the kidneys harvested. Cryosections were analyzed by immunofluorescence microscopy to assess for the degree of glomerular and tubulointerstitial damage using antibodies specific for collagen IV α1 and α2 chains, and fibronectin.

MMP-9 = MMP-9 (Homo sapiens, UniProt P14780); conditions: hydrochloride monohydrate; cited from earlier work
Chain of MMP-9 (P14780 94-707, species assumed): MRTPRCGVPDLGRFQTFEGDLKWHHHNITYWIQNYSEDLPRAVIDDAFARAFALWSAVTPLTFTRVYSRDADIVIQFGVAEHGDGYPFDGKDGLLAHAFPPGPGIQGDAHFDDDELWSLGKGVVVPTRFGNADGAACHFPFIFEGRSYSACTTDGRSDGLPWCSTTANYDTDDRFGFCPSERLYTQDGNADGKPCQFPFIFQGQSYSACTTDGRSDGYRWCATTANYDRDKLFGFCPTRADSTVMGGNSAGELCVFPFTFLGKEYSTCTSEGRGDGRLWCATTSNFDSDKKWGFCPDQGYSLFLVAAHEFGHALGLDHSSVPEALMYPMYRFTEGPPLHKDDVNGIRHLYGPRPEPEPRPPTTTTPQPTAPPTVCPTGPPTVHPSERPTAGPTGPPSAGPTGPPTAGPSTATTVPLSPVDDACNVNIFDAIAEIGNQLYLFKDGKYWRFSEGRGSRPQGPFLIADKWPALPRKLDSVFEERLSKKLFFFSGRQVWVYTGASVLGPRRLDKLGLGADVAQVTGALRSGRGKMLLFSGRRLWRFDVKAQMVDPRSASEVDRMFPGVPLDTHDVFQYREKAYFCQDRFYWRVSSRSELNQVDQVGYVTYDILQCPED

MMP-12 = MMP-12 (Homo sapiens, UniProt P39900); conditions: cited from earlier work
Chain of MMP-12 (P39900 106-470, species assumed): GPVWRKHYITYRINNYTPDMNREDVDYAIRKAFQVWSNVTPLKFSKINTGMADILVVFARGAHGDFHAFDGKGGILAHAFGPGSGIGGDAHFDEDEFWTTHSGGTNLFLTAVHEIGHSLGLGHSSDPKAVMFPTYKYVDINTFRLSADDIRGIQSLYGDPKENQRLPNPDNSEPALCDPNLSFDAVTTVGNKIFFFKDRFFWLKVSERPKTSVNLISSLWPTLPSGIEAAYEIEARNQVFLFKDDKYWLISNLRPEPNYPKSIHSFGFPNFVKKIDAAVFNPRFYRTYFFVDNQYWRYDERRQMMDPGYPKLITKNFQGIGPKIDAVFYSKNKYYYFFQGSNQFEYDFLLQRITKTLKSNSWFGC

[1] = listed as NMI 270, hydrochloride monohydrate

For COc1ccc(S(=O)(=O)N(Cc2cccnc2)[C@@H](C(=O)NO)C(C)C)cc1 [MMI 270, N-hydroxy-2(R)-[(4-methoxysulfonyl)(3-picolyl)amino]-3-methylbutaneamide hydrochloride monohydrate], the proteinuria (Alport mice; hydrochloride monohydrate) was “arrests (and may reverse) progressive loss of glomerular function”, the proteinuria (Alport mice; listed as MMI-270, hydrochloride monohydrate) was “dramatic reduction” and the proteinuria (Alport mice; [1]) was “drastically reduced”. For the same molecule, the progression of proteinuria (Alport mice; hydrochloride monohydrate) was “arrests the progressive increase in proteinuria; also recorded: arrested”, the progression of proteinuria (Alport mice; [1]) was “arrested” and the “MMP inhibitory effect, MMP-9” value (MMP-9) was “inhibits”. The “MMP inhibitory effect, MMP-12” value (MMP-12; hydrochloride monohydrate) was “inhibits” and the “MMP inhibitory effect, MMP-12” value (MMP-12; [1]) was “inhibits”.
